Ten compounds from ChEMBL document CHEMBL1201862, “PubChem BioAssay data set” (2004) can be followed below.

Some test systems named below: IGROV-1; HOP-62; NCI-H460; OVCAR-8; SNB-19; PC-3; UACC-257; A498; Malme-3M; U-251; A549; SF-539; TK-10; MDA-MB-435; SN12C; HT-29; HCT-15; UO-31; NCI-H226; MOLT-4.
Holding throughout (assay): growth of human tumour cells (NCI), 48 h

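In this assay, cells in 96-well plates receive the compound at five concentrations for 48 hours. Endpoints are linearly interpolated between the surrounding concentrations. GI50 marks 50% less growth.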 Active and inactive are the calls of the source. No stated cut-off is given here; in the data, active = GI50 up to about 1.1 µM and inactive = higher.

Turning to `CCOC(=O)c1cc2cc(N(C(C)=O)C(C)=O)ccc2s1`, the GI50 in the experiment on IGROV-1 was 38 µM (inactive); in the experiment on HOP-62, 48.1 µM (inactive); in the experiment with NCI-H460, 38.5 µM (inactive); in the experiment with OVCAR-8 it was 26.8 µM (inactive); in the experiment on SNB-19, 36.9 µM (inactive); in the experiment on PC-3, 20.5 µM (inactive). The GI50 with UACC-257 was 40 µM (inactive); in the experiment on A498, 13.8 µM (inactive); in the experiment on Malme-3M it was 16.6 µM (inactive); in the experiment with U-251, 20.7 µM (inactive); with A549, 36.1 µM (inactive); in the experiment on SF-539, 27 µM (inactive). Further, the GI50 was 56.6 µM (inactive) with TK-10; 37 µM (inactive) in the experiment on MDA-MB-435; 19.7 µM (inactive) in the experiment on SN12C; 20 µM (inactive) in the experiment on HT-29; 36.1 µM with HCT-15; 27.7 µM (inactive) in the experiment on UO-31. Besides, the figures for the GI50 in the experiment with NCI-H226 and with MOLT-4 were 20.4 µM (inactive) and 18.6 µM (inactive), respectively.

Turning to `NC(CSS(=O)(=O)c1ccccc1)C(=O)O` (stereo not given), the GI50 with IGROV-1, in the experiment with HOP-62, in the experiment with NCI-H460, with OVCAR-8, in the experiment on SNB-19 and with PC-3 was > 10 µM (inactive) each time. In addition, the GI50 with UACC-257, in the experiment on A498, in the experiment on Malme-3M, with U-251, in the experiment on A549 and with SF-539 was > 10 µM (inactive) throughout. The GI50 is > 10 µM (inactive) in the experiment on TK-10; > 10 µM (inactive) in the experiment on MDA-MB-435; > 10 µM (inactive) with SN12C; > 10 µM (inactive) with HT-29; greater than 10 µM with HCT-15; > 10 µM (inactive) in the experiment on UO-31. Further, the GI50 with NCI-H226 and in the experiment on MOLT-4 was > 10 µM (inactive) in each case.

For the compound `CN(CCCN(C)CCc1ccc(Cl)c(Cl)c1)CCCN1CCCC1`, the GI50 in the experiment with IGROV-1 was 3.11 µM (inactive); in the experiment with HOP-62, 2.86 µM (inactive); in the experiment with NCI-H460 it was 2.27 µM (inactive); in the experiment on OVCAR-8 it was 2.82 µM (inactive); in the experiment with SNB-19, 3.61 µM (inactive); in the experiment with PC-3, 3.35 µM (inactive). The GI50 is 1.83 µM (inactive) in the experiment with UACC-257; 1.76 µM (inactive) with A498; 2.16 µM (inactive) in the experiment with Malme-3M; 1.92 µM (inactive) in the experiment on U-251; 2.97 µM (inactive) in the experiment on A549; 2.88 µM (inactive) in the experiment with SF-539. The GI50 in the experiment with TK-10 is 2.05 µM (inactive); in the experiment on MDA-MB-435 it was 0.531 µM (active); in the experiment on SN12C it was 3.12 µM (inactive); in the experiment on HT-29, 0.55 µM (active); in the experiment with HCT-15, 2.31 µM; in the experiment on UO-31, 1.23 µM (inactive). Further, the values for the GI50 with NCI-H226 and in the experiment with MOLT-4 were 2.56 µM (inactive) and 0.908 µM (active), respectively.

Turning to `C(=N\c1ccc(-c2nc3ccccc3s2)cc1)/c1cccs1`, the GI50 is 49.8 µM (inactive) in the experiment with IGROV-1; 30.3 µM (inactive) with HOP-62; 36.1 µM (inactive) in the experiment on NCI-H460; 49.2 µM (inactive) in the experiment with OVCAR-8; 88.3 µM (inactive) in the experiment on SNB-19; 38.1 µM (inactive) in the experiment on PC-3. Besides, the GI50 in the experiment with UACC-257 is 38.2 µM (inactive); in the experiment on A498, 25.1 µM (inactive); with Malme-3M, 68.5 µM (inactive); in the experiment on U-251 it was 49.2 µM (inactive); in the experiment with A549 it was 57.7 µM (inactive); in the experiment with SF-539 it was 59.3 µM (inactive). Besides, the GI50 in the experiment on TK-10 was 30.5 µM (inactive); in the experiment with MDA-MB-435, 41.9 µM (inactive); with SN12C, 40.6 µM (inactive); with HT-29, 52.4 µM (inactive); in the experiment with HCT-15, 40.6 µM; with UO-31 it was 43.9 µM (inactive). The values for the GI50 with NCI-H226 and in the experiment with MOLT-4 were 54.2 µM (inactive) and 27 µM (inactive), respectively.

For the compound `CC(C)CCNC(=O)c1ccc(CNC(=O)/C=C/c2ccc3c(c2)-c2ccccc2C3)cc1`, the GI50 was 58.7 µM (inactive) with IGROV-1; 19.1 µM (inactive) with HOP-62; 57.4 µM (inactive) in the experiment on NCI-H460; 27.7 µM (inactive) in the experiment with OVCAR-8; > 100 µM (inactive) with SNB-19; 42.9 µM (inactive) in the experiment with PC-3. Further, the GI50 was 95.9 µM (inactive) in the experiment with UACC-257; > 100 µM (inactive) in the experiment with A498; 17.3 µM (inactive) in the experiment on Malme-3M; 24.7 µM (inactive) with U-251; 41.5 µM (inactive) in the experiment on A549; > 100 µM (inactive) in the experiment on SF-539. Further, the GI50 is 40 µM (inactive) with TK-10; 52.5 µM (inactive) with MDA-MB-435; > 100 µM (inactive) in the experiment on SN12C; 41.5 µM (inactive) with HT-29; 41.5 µM in the experiment with HCT-15; 42 µM (inactive) in the experiment with UO-31. The GI50 in the experiment with NCI-H226 is 60 µM (inactive); in the experiment with MOLT-4, 36.2 µM (inactive).

As to `Cc1nc(Nc2ccc(Cl)c(Cl)c2)sc1C(/C=C/c1ccc2c(c1)OCO2)=N/Nc1ccc([N+](=O)[O-])cc1[N+](=O)[O-]`, the GI50 is > 100 µM (inactive) with IGROV-1; 59.8 µM (inactive) with HOP-62; > 100 µM (inactive) in the experiment on NCI-H460; > 100 µM (inactive) with OVCAR-8; 48.1 µM (inactive) in the experiment with SNB-19; > 100 µM (inactive) in the experiment with PC-3. For the same compound, the GI50 in the experiment on UACC-257 is > 100 µM (inactive); with A498, > 50.9 µM (inactive); with Malme-3M it was > 100 µM (inactive); in the experiment with U-251, 41.1 µM (inactive); in the experiment on A549, > 100 µM (inactive); in the experiment on SF-539, 43.8 µM (inactive). The GI50 was 66.5 µM (inactive) in the experiment with TK-10; > 100 µM (inactive) in the experiment with MDA-MB-435; > 100 µM (inactive) in the experiment on SN12C; > 100 µM (inactive) with HT-29; greater than 97.1 µM in the experiment with HCT-15; 78.2 µM (inactive) in the experiment with UO-31. The GI50 with NCI-H226 was > 59 µM (inactive); with MOLT-4 it was > 56.2 µM (inactive).

As for `O=S(=O)(N1CCCCN(S(=O)(=O)C(F)(F)F)CCCN(S(=O)(=O)C(F)(F)F)CCCN(S(=O)(=O)C(F)(F)F)CCCCN(S(=O)(=O)C(F)(F)F)CCCN(S(=O)(=O)C(F)(F)F)CCC1)C(F)(F)F`, the GI50 with IGROV-1 is 35.6 µM (inactive); with HOP-62, 29.7 µM (inactive); in the experiment on NCI-H460, 30.9 µM (inactive); with OVCAR-8, 36.4 µM (inactive); in the experiment with SNB-19, 35.2 µM (inactive); in the experiment on PC-3, > 100 µM (inactive). In addition, the GI50 in the experiment on UACC-257 was 49.3 µM (inactive); with A498, 52.6 µM (inactive); with Malme-3M, 23.2 µM (inactive); in the experiment on U-251, 21.6 µM (inactive); in the experiment on A549, > 100 µM (inactive); in the experiment on SF-539, 28.9 µM (inactive). The GI50 in the experiment with TK-10 is 99.5 µM (inactive); in the experiment on MDA-MB-435 it was 53.7 µM (inactive); with SN12C it was 35.8 µM (inactive); in the experiment with HT-29, > 100 µM (inactive); with HCT-15, 68.4 µM; with UO-31 it was > 100 µM (inactive). Besides, the GI50 is 81.8 µM (inactive) in the experiment with NCI-H226 and > 100 µM (inactive) in the experiment on MOLT-4.

Turning to `CCCCCC(/C=C/C1CCC(=O)C1CC#C[Si](C)(C)C)OCc1ccccc1` (stereo not given), the GI50 in the experiment with IGROV-1 is 14.5 µM (inactive); in the experiment with HOP-62, 19.1 µM (inactive); in the experiment on NCI-H460, 17 µM (inactive); in the experiment with OVCAR-8, 14.8 µM (inactive); in the experiment with SNB-19, 28.4 µM (inactive); in the experiment on PC-3 it was 17.3 µM (inactive). For the same compound, the GI50 with UACC-257 is 17.2 µM (inactive); in the experiment with A498 it was 36.3 µM (inactive); in the experiment with Malme-3M, 15.9 µM (inactive); with U-251, 19 µM (inactive); in the experiment with A549 it was 21.5 µM (inactive); with SF-539 it was 12.1 µM (inactive). The GI50 in the experiment with TK-10 was 22.1 µM (inactive); in the experiment on MDA-MB-435 it was 19.9 µM (inactive); with SN12C it was 19.8 µM (inactive); in the experiment on HT-29 it was 16.3 µM (inactive); in the experiment with HCT-15, 15.6 µM; in the experiment with UO-31, 15.5 µM (inactive). Also, the GI50 with NCI-H226 was 30.5 µM (inactive); in the experiment on MOLT-4 it was > 37.8 µM (inactive).

As for `CC(=O)CC1(OC(=O)C2C(C=C(C)C)C2(C)C)C(=O)Nc2ccccc21` (stereo not given), the GI50 in the experiment on IGROV-1 was > 100 µM (inactive); in the experiment with HOP-62, > 100 µM (inactive); with NCI-H460, 82.8 µM (inactive); with OVCAR-8, > 100 µM (inactive); with SNB-19 it was > 100 µM (inactive); with PC-3, 37.6 µM (inactive). Moreover, the GI50 with UACC-257, in the experiment on A498, with Malme-3M, in the experiment on U-251, with A549 and in the experiment on SF-539 was > 100 µM (inactive) in each case. Moreover, the GI50 with TK-10 is > 100 µM (inactive); with MDA-MB-435 it was > 100 µM (inactive); in the experiment on SN12C, > 100 µM (inactive); with HT-29, > 100 µM (inactive); in the experiment with HCT-15, greater than 100 µM; in the experiment with UO-31, > 100 µM (inactive). For the same compound, the GI50 in the experiment with NCI-H226 and with MOLT-4 was > 100 µM (inactive) each time.

`O=C(/C=C/c1cccc(Br)c1)c1cccs1`: the GI50 in the experiment on IGROV-1 is 17.1 µM (inactive); in the experiment with HOP-62, 26 µM (inactive); in the experiment with NCI-H460 it was 16.2 µM (inactive); in the experiment with OVCAR-8, 17.7 µM (inactive); with SNB-19 it was 14.2 µM (inactive); in the experiment with PC-3, 17.5 µM (inactive). Besides, the GI50 in the experiment on UACC-257 is 18.4 µM (inactive); in the experiment on A498, 16.5 µM (inactive); in the experiment on Malme-3M, 22.1 µM (inactive); in the experiment on U-251, 13.9 µM (inactive); with A549 it was 17.4 µM (inactive); in the experiment on SF-539, 18 µM (inactive). The GI50 is 16.4 µM (inactive) in the experiment with TK-10; 11.7 µM (inactive) in the experiment on MDA-MB-435; 14.7 µM (inactive) with SN12C; 11.5 µM (inactive) in the experiment on HT-29; 14.6 µM with HCT-15; 13 µM (inactive) in the experiment with UO-31. Moreover, the GI50 in the experiment on NCI-H226 is 17.9 µM (inactive); in the experiment with MOLT-4, 15.3 µM (inactive).
